Species on record: Rattus norvegicus
Experiment: DrugMatrix - Regimen: Daily Repeat
Assay type: toxicity, organism-based, Sprague-Dawley
Parameters: regimen Daily Repeat, gender Male, age 6-8 weeks
Conditions: in vivo, po, route oral GAVAGE, vehicle 100 % WATER; for ABSOLUTE BASOPHIL / ABSOLUTE EOSINOPHIL / ABSOLUTE LYMPHOCYTE / ABSOLUTE MONOCYTE / ABSOLUTE SEGMENTED NEUTROPHIL / BASOPHIL / EOSINOPHIL / ERYTHROCYTE COUNT / HEMATOCRIT / HEMOGLOBIN / LEUKOCYTE COUNT / LYMPHOCYTE / MEAN CORPUSCULAR HEMOGLOBIN / MEAN CORPUSCULAR HEMOGLOBIN CONCENTRATION / MEAN CORPUSCULAR VOLUME / MONOCYTE / NEUTROPHIL / NUCLEATED RED BLOOD CELLS / PLATELET COUNT: tissue Blood; for ALANINE AMINOTRANSFERASE / ALBUMIN / ALKALINE PHOSPHATASE / ASPARTATE AMINOTRANSFERASE / BLOOD UREA NITROGEN / CARBON DIOXIDE / CHLORIDE / CHOLESTEROL / CREATINE PHOSPHOKINASE / CREATININE / GLUCOSE / LACTATE DEHYDROGENASE / LIPASE / PHOSPHORUS / POTASSIUM / SODIUM / TOTAL BILIRUBIN / TOTAL PROTEIN / URIC ACID: tissue Plasma
[1] = 0 mg/kg, 72 h, dose level Control, time 3 day
[2] = 0 mg/kg, 120 h, dose level Control, time 5 day
[3] = 25 mg/kg, 72 h, dose level Low, time 3 day

Compound: c1ccc([C@H]2CN3CCSC3=N2)cc1 [LEVAMISOLE]
- ABSOLUTE BASOPHIL [1]: 0 CELLS/uL
- ABSOLUTE EOSINOPHIL [1]: 20.17 CELLS/uL
- ABSOLUTE LYMPHOCYTE [1]: 12371.67 CELLS/uL
- ABSOLUTE MONOCYTE [1]: 166 CELLS/uL
- ABSOLUTE SEGMENTED NEUTROPHIL [1]: 1292.17 CELLS/uL
- BASOPHIL [1]: 0%
- EOSINOPHIL [1]: 0.17%
- ERYTHROCYTE COUNT [1]: 5.46 x10E6/uL
- HEMATOCRIT [1]: 34.38%
- HEMOGLOBIN [1]: 13.32 G/DL
- LEUKOCYTE COUNT [1]: 13.85 x10E3/uL
- LYMPHOCYTE [1]: 88.5%
- MEAN CORPUSCULAR HEMOGLOBIN [1]: 24.42 pg
- MEAN CORPUSCULAR HEMOGLOBIN CONCENTRATION [1]: 38.7 G/DL
- MEAN CORPUSCULAR VOLUME [1]: 63.07 fL
- MONOCYTE [1]: 1.17%
- NEUTROPHIL [1]: 10.17%
- NUCLEATED RED BLOOD CELLS [1]: 0.17 /100WBC
- PLATELET COUNT [1]: 1193.5 x10E3/uL
- ALANINE AMINOTRANSFERASE [1]: 54.5 u/L
- ALBUMIN [1]: 4.02 G/DL
- ALKALINE PHOSPHATASE [1]: 346.5 u/L
- ASPARTATE AMINOTRANSFERASE [1]: 103.17 u/L
- BLOOD UREA NITROGEN [1]: 16.5 mg/dL
- CARBON DIOXIDE [1]: 29.83 mmol/L
- CHLORIDE [1]: 99.5 MEQ/L
- CHOLESTEROL [1]: 72.5 mg/dL
- CREATINE PHOSPHOKINASE [1]: 532.5 u/L
- CREATININE [1]: 0.18 mg/dL
- GLUCOSE [1]: 168.5 mg/dL
- LACTATE DEHYDROGENASE [1]: 536.5 u/L
- LIPASE [1]: 11.17 u/L
- PHOSPHORUS [1]: 11.48 mg/dL
- POTASSIUM [1]: 5.95 MEQ/L
- SODIUM [1]: 140.5 MEQ/L
- TOTAL BILIRUBIN [1]: 0.18 mg/dL
- TOTAL PROTEIN [1]: 5.77 G/DL
- URIC ACID [1]: 1.42 mg/dL
- ABSOLUTE BASOPHIL [2]: 0 CELLS/uL
- ABSOLUTE EOSINOPHIL [2]: 22.83 CELLS/uL
- ABSOLUTE LYMPHOCYTE [2]: 12202.83 CELLS/uL
- ABSOLUTE MONOCYTE [2]: 158 CELLS/uL
- ABSOLUTE SEGMENTED NEUTROPHIL [2]: 1283 CELLS/uL
- BASOPHIL [2]: 0%
- EOSINOPHIL [2]: 0.17%
- ERYTHROCYTE COUNT [2]: 5.88 x10E6/uL
- HEMATOCRIT [2]: 36.62%
- HEMOGLOBIN [2]: 14.07 G/DL
- LEUKOCYTE COUNT [2]: 13.67 x10E3/uL
- LYMPHOCYTE [2]: 89.5%
- MEAN CORPUSCULAR HEMOGLOBIN [2]: 23.95 pg
- MEAN CORPUSCULAR HEMOGLOBIN CONCENTRATION [2]: 38.43 G/DL
- MEAN CORPUSCULAR VOLUME [2]: 62.28 fL
- MONOCYTE [2]: 1.17%
- NEUTROPHIL [2]: 9.17%
- NUCLEATED RED BLOOD CELLS [2]: 0.17 /100WBC
- PLATELET COUNT [2]: 1198 x10E3/uL
- ALANINE AMINOTRANSFERASE [2]: 51 u/L
- ALBUMIN [2]: 4.3 G/DL
- ALKALINE PHOSPHATASE [2]: 343 u/L
- ASPARTATE AMINOTRANSFERASE [2]: 89.83 u/L
- BLOOD UREA NITROGEN [2]: 17.67 mg/dL
- CARBON DIOXIDE [2]: 27.17 mmol/L
- CHLORIDE [2]: 98.33 MEQ/L
- CHOLESTEROL [2]: 82.5 mg/dL
- CREATINE PHOSPHOKINASE [2]: 533.33 u/L
- CREATININE [2]: 0.18 mg/dL
- GLUCOSE [2]: 152.67 mg/dL
- LACTATE DEHYDROGENASE [2]: 220.33 u/L
- LIPASE [2]: 11.5 u/L
- PHOSPHORUS [2]: 11.25 mg/dL
- POTASSIUM [2]: 6.29 MEQ/L
- SODIUM [2]: 140.53 MEQ/L
- TOTAL BILIRUBIN [2]: 0.22 mg/dL
- TOTAL PROTEIN [2]: 6.12 G/DL
- URIC ACID [2]: 1.42 mg/dL
- ABSOLUTE BASOPHIL [3]: 0 CELLS/uL
- ABSOLUTE EOSINOPHIL [3]: 0 CELLS/uL
- ABSOLUTE LYMPHOCYTE [3]: 9283.33 CELLS/uL
- ABSOLUTE MONOCYTE [3]: 29.33 CELLS/uL
- ABSOLUTE SEGMENTED NEUTROPHIL [3]: 1254 CELLS/uL
- BASOPHIL [3]: 0%
- EOSINOPHIL [3]: 0%
- ERYTHROCYTE COUNT [3]: 5.36 x10E6/uL
- HEMATOCRIT [3]: 32.73%
- HEMOGLOBIN [3]: 13 G/DL
- LEUKOCYTE COUNT [3]: 10.57 x10E3/uL
- LYMPHOCYTE [3]: 87.67%
- MEAN CORPUSCULAR HEMOGLOBIN [3]: 24.3 pg
- MEAN CORPUSCULAR HEMOGLOBIN CONCENTRATION [3]: 39.73 G/DL
- MEAN CORPUSCULAR VOLUME [3]: 61.17 fL
- MONOCYTE [3]: 0.33%
- NEUTROPHIL [3]: 12%
- NUCLEATED RED BLOOD CELLS [3]: 0 /100WBC
- PLATELET COUNT [3]: 1056.33 x10E3/uL
- ALANINE AMINOTRANSFERASE [3]: 64.33 u/L
- ALBUMIN [3]: 3.87 G/DL
- ALKALINE PHOSPHATASE [3]: 326.33 u/L
- ASPARTATE AMINOTRANSFERASE [3]: 98.67 u/L
- BLOOD UREA NITROGEN [3]: 14.33 mg/dL
- CARBON DIOXIDE [3]: 30 mmol/L
- CHLORIDE [3]: 99 MEQ/L
- CHOLESTEROL [3]: 78.33 mg/dL
- CREATINE PHOSPHOKINASE [3]: 446 u/L
- CREATININE [3]: 0.19 mg/dL
- GLUCOSE [3]: 155 mg/dL
- LACTATE DEHYDROGENASE [3]: 214 u/L
- LIPASE [3]: 10.67 u/L
- PHOSPHORUS [3]: 11.53 mg/dL
- POTASSIUM [3]: 5.92 MEQ/L
- SODIUM [3]: 142 MEQ/L
- TOTAL BILIRUBIN [3]: 0.17 mg/dL
- TOTAL PROTEIN [3]: 5.57 G/DL

— ChEMBL document CHEMBL3885881, “DrugMatrix”
